Tests used:
[1] = tested on: Antibody Forming Cells; experiment: Antibody Forming Cells count (Jerne) in spleen after immunization with sheep erythrocytes; assay type: in vivo, (CBA×C57BL)F1 mice
Protocol: (§1) Females and male (CBA×C57BL)F1 mice, aged about 2.5 months weighing about 20 g, were irradiated with gamma-rays using a "Luch-1" apparatus. Immunological activity was assessed according to Jerne (Antibody Forming Cells count--AFC). T-cell count in spleen was determined by the method of spontaneous rosette formation with sheep erythrocytes (E-FRC). The peptide was injected intramuscularly.
(§2) Mice were irradiated in a dose of 2 Gy, the peptide was injected in the dose of 10 μg/kg according to the following scheme (to determine T-cell count by the method of spontaneous rosette formation): 1 time--an hour after the irradiation; 2 times--an hour, and a day after irradiation; 3 times--an hour, a day, and two days after the irradiation; 4 times--an hour, a day, two days and three days after the irradiation. The intact mice recieved the peptide 3 or 4 times. The control group (2 Gy) recieved injections of physiological solution according to the same schedule. On completion of the treatment course, 10 mice from each group were immunized with sheep erythrocytes (SE) and 4-5 days later AFC counts were determined in their spleens. The rest of the mice were used to find T-cell count by the method of spontaneous rosette formation. The state of the organs of immune system (spleen and thymus) in mice with radiation immunodeficiency against the background of H-Ile-Glu-Trp-OH treatment was also listed by nucleated cell counts in thymus and spleen per mg of organ weight. AFC/mg Spleen weight is presented as an average of two experiments.

[2] = tested on: karyocytes in spleen and thymus; experiment: Nucleated cell counts in thymus and spleen per mg of organ weight, radiation immunodeficiency; assay type: in vivo, (CBA×C57BL)F1 mice; settings: 2 Gy
Protocol: as §1, §2

[3] = tested on: CFU-S; experiment: Regeneration of the CFU-S population in bone marrow of irradiated mice (4 Gy); assay type: in vivo
Text: a) Scheme 1: mice received the peptide immediately after irradiation, daily. The mice were divided into groups: a control group--irradiated mice (4 Gy), and test groups--irradiated mice (4 Gy) received the peptide 1, 2, 3, and 4 times daily. Blood samples were taken four hours after the last peptide injection and on the 7th, 10th, and 16th day after the irradiation. Determined were total count of nucleated blood cells (NC) and lymphocyte percentage of them; nucleated cells and the CFU-S population in femoral bone marrow were counted on the 4th, 8th, and the 14th day.
From each group at least five mice were killed, their bone marrow was taken out and used to prepare the cell suspension, which was injected to lethally irradiated mice. After 9 days, CFU-S was counted in irradiated (4 Gy) donors receiving the peptide by counting the colonies grown on spleen. It was noted that with intramuscular administration of the peptide the CFU-S count in irradiated mice bone marrow was steadily growing starting from the 4th day, leaving the control CFU-S far behind.
b) According to scheme 2, the peptide injections were made starting from the 3rd day after the irradiation, at the same time of maximum depletion of the pool of mature nucleated cells and the bone marrow. The groups of mice were formed in the same way as in the previous scheme. Blood samples were taken 4 hours after the last injection i.e. on day 6, as well as on days 11, 14, 18, 21. Tables 9 and 10 present the data on karyocyte and lymphocyte counts in blood (per 1 mm^3) of mice treated according to scheme 2.

[4] = Local irritating effect, rabbits; assay type: in vivo
Text: The local irritating effect of H-Ile-Glu-Trp-OH was studied in 20 guinea pigs and 5 rabbits.

## H-Ile-Glu-Trp-OH
[1]; 2 Gy, 10 μg/kg i.m., 3 Injection
  AFC/mg Spleen: 152.4 ± 4.1
[1]; 2 Gy, 10 μg/kg i.m., 4 Injection
  AFC/mg Spleen: 158.1 ± 7.1
[1]; intact mice, 3 Injections
  AFC/mg Spleen: 621.1 ± 14.2
[1]; intact mice, 4 Injections
  AFC/mg Spleen: 676.1 ± 47.5
[1]; intact mice, humoral response to SE
  AFC increase: 5 times
[1]; irradiated mice, 3 and 4 injections
  number of antibody forming cells: practically doubled
[2]; 1 Injection
  Karyocyte Count, Spleen: 1120 ± 73 10^3 /mg
  Karyocyte Count, Thymus: 1860 ± 200 10^3 /mg
[2]; 2 Injection
  Karyocyte Count, Spleen: 890 ± 80 10^3 /mg
  Karyocyte Count, Thymus: 1840 ± 380 10^3 /mg
[2]; 3 Injection
  Karyocyte Count, Spleen: 980 ± 80 10^3 /mg
  Karyocyte Count, Thymus: 2590 ± 400 10^3 /mg
[2]; 4 Injection
  Karyocyte Count, Spleen: 1160 ± 100 10^3 /mg
  Karyocyte Count, Thymus: 2480 ± 280 10^3 /mg
[3]; scheme 1, i.m.
  cellular composition of bone marrow: did not affect
[3]; scheme 1, i.m. (FIG. 1)
  regeneration of the CFU-S population: markedly stimulated regeneration of the CFU-S population
[3]; scheme 2, 1 Time, Day 7
  CFU-S (absolute) in femoral bone marrow: 459 ± 26
[3]; scheme 2, 1 Time, Day 11
  CFU-S (absolute) in femoral bone marrow: 858 ± 67
[3]; scheme 2, 1 Time, Day 14
  CFU-S (absolute) in femoral bone marrow: 1197 ± 75
[3]; scheme 2, 2 Time, Day 7
  CFU-S (absolute) in femoral bone marrow: 298 ± 27
[3]; scheme 2, 2 Time, Day 11
  CFU-S (absolute) in femoral bone marrow: 846 ± 44
[3]; scheme 2, 2 Time, Day 14
  CFU-S (absolute) in femoral bone marrow: 902 ± 56
[3]; scheme 2, 3 Time, Day 7
  CFU-S (absolute) in femoral bone marrow: 305 ± 33
[3]; scheme 2, 3 Time, Day 11
  CFU-S (absolute) in femoral bone marrow: 1077 ± 56
[3]; scheme 2, 3 Time, Day 14
  CFU-S (absolute) in femoral bone marrow: 1166 ± 68
[3]; scheme 2, 4 Time, Day 7
  CFU-S (absolute) in femoral bone marrow: 431 ± 48
[3]; scheme 2, 4 Time, Day 11
  CFU-S (absolute) in femoral bone marrow: 1147 ± 55
[3]; scheme 2, 4 Time, Day 14
  CFU-S (absolute) in femoral bone marrow: 1434 ± 89
[4]
  local irritating effect: no local irritating effect
